Test results as given in patent US10501518B2 (priority 2013, dated 2019).
No end group written: not given here.

Target: T1, PTHR1 (Homo sapiens, UniProt Q03431)
T1 sequence (Q03431 27-593): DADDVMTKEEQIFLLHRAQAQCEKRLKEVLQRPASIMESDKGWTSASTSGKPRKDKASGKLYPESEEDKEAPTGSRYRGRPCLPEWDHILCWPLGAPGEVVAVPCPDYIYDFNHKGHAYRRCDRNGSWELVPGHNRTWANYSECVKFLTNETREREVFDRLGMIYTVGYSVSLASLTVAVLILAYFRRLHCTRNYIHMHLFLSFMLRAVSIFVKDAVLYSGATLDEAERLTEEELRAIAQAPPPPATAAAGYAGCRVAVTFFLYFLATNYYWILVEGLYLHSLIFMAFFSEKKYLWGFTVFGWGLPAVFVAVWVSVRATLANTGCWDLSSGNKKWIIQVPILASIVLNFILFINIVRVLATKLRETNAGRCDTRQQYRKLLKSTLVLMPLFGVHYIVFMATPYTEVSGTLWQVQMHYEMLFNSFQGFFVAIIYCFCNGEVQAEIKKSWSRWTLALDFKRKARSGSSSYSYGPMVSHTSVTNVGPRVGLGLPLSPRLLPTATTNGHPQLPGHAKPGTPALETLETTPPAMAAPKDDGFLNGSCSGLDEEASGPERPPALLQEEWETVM
Experiment: Inhibition of PTH-induced PTHR1 cAMP signaling by bPTH(7-34) analogs
Details: Table 18; [Inhibitor] = 1 μM

| Substance | EC50(+)inhibitor/EC50(−)inhibitor |
| --- | --- |
| FMHNLWKHLSSMERVEWLRKKLQDVHNF-NH2 [bPTH(7-34)dTrp12, reference compound] | 60.12 |
| FMHNLWKWLSSMERVEWLRKKLQDVHNF-NH2 [D6 bPTH(7-34) dTrp12] | 16.49 |
| LMHNLGKHLNSMERVEWLRKKLQDVHNF-NH2 [hPTH(7-34), reference compound] | 1.60 |
| XMHNLWKWLSSMERVEWLRKKLQDVHNF-NH2 [D6 bPTH(7-34) dTrp12 ACPC7] | 4.38 |
| XMHNLWKXLSSXERVZWLRZKLQXVHNX-NH2 [FCycD6 bPTH(7-34) dTrp12 ACPC7] | 3.50 |
